Several values for one entry are separate records, joined by “and”; a condition that tells them apart may be missing. Identical values can stand only once.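 Compound exposure: 48 hours, 5 concentrations, 96-well plates. GI50: concentration for 50% inhibition of growth. TGI: concentration producing complete growth inhibition.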
What was measured:
Experiment in all cases: growth of human tumour cells (NCI), 48 h
[1] = test system: RXF 393 renal
[2] = test system: UACC-257 melanoma
[3] = test system: MALME-3M melanoma
[4] = test system: RPMI-8226 leukemia
[5] = test system: HOP-92 NSCLC
[6] = test system: SN12C renal
[7] = test system: SK-MEL-2 melanoma
[8] = test system: K-562 leukemia
[9] = test system: KM12 colon
[10] = test system: 786-0 renal

| Compound | GI50 [1] [µM] | TGI [1] [µM] | GI50 [2] [µM] | TGI [2] | GI50 [3] [µM] | TGI [3] | GI50 [4] [µM] | TGI [4] [µM] | GI50 [5] [µM] | TGI [5] [µM] | GI50 [6] [µM] | TGI [6] | GI50 [7] [µM] | TGI [7] | GI50 [8] [µM] | TGI [8] | GI50 [9] [µM] | TGI [9] | GI50 [10] [µM] | TGI [10] |
| --- | --- | --- | --- | --- | --- | --- | --- | --- | --- | --- | --- | --- | --- | --- | --- | --- | --- | --- | --- | --- |
| CC1=C(C#N)C23C(=O)c4ccccc4C(O)=C2C(=O)C=CC3(O)N1Cc1ccccc1 (stereo not drawn) | 26 | > 100 | 35 | > 100 µM | 22 | 47.1 µM | 34 | > 100 | 39.4 | > 100 | 52.5 | > 100 µM | 33 | > 100 µM | 32.9 | > 100 µM | 42.4 | > 100 µM | 44.5 | > 100 µM |
| O=C(CN1CCN(c2cc3c(cc2F)c(=O)c(C(=O)N/N=C/c2ccccc2O)cn3C2CC2)CC1)N/N=C\c1ccccc1O | 1.32 | > 100 | 0.912 | > 100 µM | 0.627 | > 63.4 µM | 0.557 | > 100 | 2.15 | > 100 | 0.694 | > 100 µM | 1.66 | > 100 µM | 0.389 | > 100 µM | 0.462 | > 100 µM | 1.12 | > 100 µM |
| N#CC(C#N)=c1ccc(=C2NCC3CCCN23)cc1 (stereo not drawn) |  | > 100 |  | > 100 µM |  | > 100 µM |  | > 100 |  | > 100 |  | > 100 µM |  | > 100 µM |  | > 100 µM |  | > 100 µM |  | > 100 µM |
| COc1cc(C(=O)/C=C/c2sc(Cl)nc2Cl)cc(OC)c1OC | 1.7 | 3.12 | 2.01 | 4.23 µM | 1.59 | 3.14 µM | 1.69 | 4.57 | 1.6 | 3.19 | 1.74 | 3.2 µM | 2.39 | 5.86 µM | 1.84 | > 100 µM | 1.92 | 3.84 µM | 1.84 | 3.42 µM |
| CN(CC(=O)O)S(=O)(=O)c1ccc2ccccc2c1 |  | > 100 |  | > 100 µM |  | > 100 µM |  | > 100 |  | > 100 |  | > 100 µM |  | > 100 µM |  | > 100 µM |  | > 100 µM |  | > 100 µM |
| COc1ccc(/C=C\c2cc(OC)c3c(c2)OCO3)c(O)c1O |  | 11.7 |  | 53.4 µM |  | 48.7 µM |  | 18.2 |  | 16.1 |  | 41.4 µM |  | 42.6 µM |  | 27 µM |  | 21.4 µM |  | 14.7 µM |
| O=C(O)c1cc(C(=O)O)cc(N2C(=O)c3ccccc3C2=O)c1 |  | > 100 |  | > 100 µM |  | > 100 µM |  | > 100 |  | > 100 |  | > 100 µM |  | > 100 µM |  | > 100 µM |  | > 100 µM |  | > 100 µM |
| O=C1NNC(=O)c2ccccc2SSc2ccccc2C(=O)NNC(=O)c2ccccc2SSc2ccccc21 |  | > 50 | 45.2 | 50 µM and > 100 µM | 25.9 | 42.6 µM and > 100 µM |  | 50 | > 100 | > 100 | 17 | 50 µM and > 100 µM | 4.93 | 50 µM and > 100 µM | 3.76 | 50 µM and > 100 µM | 42.3 | 50 µM and > 100 µM | 10 | 50 µM and 26.6 µM |

Reference: PubChem BioAssay (NCI)
